Measured values published in ChEMBL document CHEMBL3603786, “The 2',4'-dihydroxychalcone could be explored to develop new inhibitors against the glycerol-3-phosphate dehydrogenase from Leishmania species” (Bioorg Med Chem Lett, 2015).

How the values were obtained:
Leishmania amazonensis [1] = assay: Antileishmanial activity against promastigotes of Leishmania amazonensis MPRO/BR/1972/M1841-LV-79 after 72 hrs by MTT assay; assay type: functional, organism-based; conditions: MPRO/BR/1972/M1841-LV-79, 72 h
[2] = Cytotoxicity against Swiss albino mouse peritoneal macrophages after 24 hrs by MTT assay; assay type: cell-based, Peritoneal macrophage cell
[3] = Selectivity index, ratio of CC50 for Swiss albino mouse peritoneal macrophages to IC50 for promastigotes of Leishmania amazonensis MPRO/BR/1972/M1841-LV-79; assay type: functional
Leishmania amazonensis [4] = assay: Ratio of pentamidine IC50 to compound IC50 for Leishmania amazonensis MPRO/BR/1972/M1841-LV-79; assay type: functional

O=C(/C=C/c1ccccc1)c1ccc(O)cc1O [2',4'-DIHYDROXYCHALCONE]
IC50 (Leishmania amazonensis [1]): 0.4 µM | CC50 at 24 h [2]: 417 µM | Ratio CC50/IC50 [3]: 1041.7 | Ratio IC50 (Leishmania amazonensis [4]): 16

N=C(N)c1ccc(OCCCCCOc2ccc(C(=N)N)cc2)cc1 [PENTAMIDINE]
IC50 (Leishmania amazonensis [1]): 6.7 µM | CC50 at 24 h [2]: 35.7 µM | Ratio CC50/IC50 [3]: 5.3
